Data reported in US20250120399A1, “METHODS AND COMPOSITIONS FOR ALTERING METABOLITES IN VITIS SPP. AND PREVENTING PESTS AND PATHOGENS” (Impello Biosciences, Inc., priority 2022, published 2025).
Several values for one entry are separate records, joined by “and”; a condition that tells them apart may be missing. Equal entries are not always repeated.

Tested on: Grapevine (Malbec variety)
Assay: Leaf sap Brix by refractometer, Malbec field trial (Example 1)
Format: in vivo, Vitis vinifera
Parameters: % BRIX, Plant #1 / % BRIX, Plant #2 / % BRIX, Plant #3: reference not given here
Conditions: for Brix, individual leaf: leaf no. 1-25, one line per leaf
Protocol: An eliciting composition and methods of use to alter metabolite production were tested on 6 acres of a Malbec variety planted in 1999 in Napa Valley, California. Plants were spaced 5′×10′ (900 vines per acre) and grouped into randomized blocks of 900 vines per group, with six replicates covering three acres for the treatment group, and six replicates covering three acres for the control group. The treatment group received two applications of 32 oz of MDJ applied at a rate of 100 gallons per acre (2.5 mM), once prior to veraison on Aug. 9, 2021 and again when 5-10% of berries were starting to blush (veraison) using a ground spray rig (backpack sprayer). From within each replicate, three plants were selected at random, and 25 leaves from each plant were randomly selected for analysis. The internal sap of the leaves was tested using a refractometer on the days shown below in Table 4 and FIG. 1. Data from each replicate was averaged (25 leaves from each plant, 3 plants).

[1] = Malbec, 2.5 mM MDJ, average of all replicate groups sampled
[2] = Replicate 1 sampled on Aug. 15, 2021, MDJ treated Plant #1
[3] = Replicate 1 sampled on Aug. 15, 2021, MDJ treated Plant #2
[4] = Replicate 1 sampled on Aug. 15, 2021, MDJ treated Plant #3
[5] = Replicate 2 sampled on Sep. 22, 2021, MDJ treated Plant #1
[6] = Replicate 2 sampled on Sep. 22, 2021, MDJ treated Plant #2
[7] = Replicate 2 sampled on Sep. 22, 2021, MDJ treated Plant #3
[8] = Replicate 3 sampled on Sep. 30, 2021, MDJ treated Plant #1
[9] = Replicate 3 sampled on Sep. 30, 2021, MDJ treated Plant #2
[10] = Replicate 3 sampled on Sep. 30, 2021, MDJ treated Plant #3

CCCCCC1C(=O)CCC1CC(=O)OC (centres unmarked) [MDJ, methyl dihydrojasmonate]
Brix, individual leaf (Malbec, 2.5 mM MDJ, Replicate 1 sampled on Aug. 15, 2021, MDJ treated Plant #1): 21.0 and 20.0 (2×) and 19.0 (2×) and 19.8 (3×) and 19.5 (3×) and 18.7 (2×) and 19.4 (2×) and 20.5 (2×) and 18.9 (5×) and 18.4 and 19.9 (2×) | Brix, individual leaf (Malbec, 2.5 mM MDJ, Replicate 1 sampled on Aug. 15, 2021, MDJ treated Plant #2): 18.8 and 22.1 and 19.6 and 18.7 and 18.9 (2×) and 19.7 (2×) and 19.0 (2×) and 21.0 (2×) and 20.1 and 19.2 (2×) and 21.1 and 21.8 and 19.1 (2×) and 18.3 and 18.0 and 18.6 and 22.8 and 19.5 and 19.3 | Brix, individual leaf (Malbec, 2.5 mM MDJ, Replicate 1 sampled on Aug. 15, 2021, MDJ treated Plant #3): 19.1 and 19.7 (2×) and 19.0 (2×) and 21.0 and 21.8 (2×) and 19.2 (2×) and 20.0 and 19.10 and 19.00 (2×) and 19.30 (2×) and 19.60 and 19.40 (2×) and 18.80 and 18.90 (2×) and 19.6 and 18.3 and 18.9 | Brix, individual leaf (Malbec, 2.5 mM MDJ, Replicate 2 sampled on Sep. 22, 2021, MDJ treated Plant #1): 23.9 and 26.3 and 23.4 and 26.8 and 24.3 and 23.1 and 25.0 and 22.9 | Brix, individual leaf (Malbec, 2.5 mM MDJ, Replicate 2 sampled on Sep. 22, 2021, MDJ treated Plant #2): 26.5 and 25.5 and 24.8 and 24.9 and 26.7 and 23.8 and 24.0 and 25.0 | Brix, individual leaf (Malbec, 2.5 mM MDJ, Replicate 2 sampled on Sep. 22, 2021, MDJ treated Plant #3): 25.00 (2×) and 19.90 (2×) and 22.40 and 23.80 and 19.30 and 24.60 and 24.50 | MDJ TREATED averages, BRIX METRIC Juice-SAP [1]: 26.1 | Percent increase of Brix, MDJ treated vs control [1]: 44.5% | Percent increase of Brix, MDJ treated vs control (Malbec, 2.5 mM MDJ, replicate group 2, 22-Sep): 59.4% | Percent increase of Brix, MDJ treated vs control (Malbec, 2.5 mM MDJ, replicate group 3, 30-Sep): 93.3% | Percent increase of Brix, MDJ treated vs control (Malbec, 2.5 mM MDJ, replicate group 4, 5-Oct): 46.3% | Percent increase of Brix, MDJ treated vs control (Malbec, 2.5 mM MDJ, replicate group 5, 10-Oct): 25% | Percent increase of Brix, MDJ treated vs control (Malbec, 2.5 mM MDJ, replicate group 6, 30-Oct): 62.5% | MDJ TREATED averages, BRIX METRIC Juice-SAP (Malbec, two applications of 32 oz MDJ at 100 gal/acre (2.5 mM), replicate group 1, 15-Aug): 19.6 | MDJ TREATED averages, BRIX METRIC Juice-SAP (Malbec, two applications of 32 oz MDJ at 100 gal/acre (2.5 mM), replicate group 2, 22-Sep): 24.4 | MDJ TREATED averages, BRIX METRIC Juice-SAP (Malbec, two applications of 32 oz MDJ at 100 gal/acre (2.5 mM), replicate group 3, 30-Sep): 29.0 | MDJ TREATED averages, BRIX METRIC Juice-SAP (Malbec, two applications of 32 oz MDJ at 100 gal/acre (2.5 mM), replicate group 4, 5-Oct): 30.0 | MDJ TREATED averages, BRIX METRIC Juice-SAP (Malbec, two applications of 32 oz MDJ at 100 gal/acre (2.5 mM), replicate group 5, 10-Oct): 27.5 | MDJ TREATED averages, BRIX METRIC Juice-SAP (Malbec, two applications of 32 oz MDJ at 100 gal/acre (2.5 mM), replicate group 6, 30-Oct): 26.0 | Plant Brix vs control (Malbec, two applications of MDJ (2.5 mM)): increase in plant Brix | % BRIX [2]: 77.9% | AVG Brix of 25 leaves [2]: 19.5 | % BRIX [3]: 78.8% | AVG Brix of 25 leaves [3]: 19.7 | % BRIX [4]: 77.9% | AVG Brix of 25 leaves [4]: 19.5 | % BRIX [5]: 99.5% | AVG Brix of 25 leaves [5]: 24.9 | % BRIX [6]: 101.0% | AVG Brix of 25 leaves [6]: 25.3 | % BRIX [7]: 91.8% | AVG Brix of 25 leaves [7]: 23.0 | % BRIX [8]: 111.9% | AVG Brix of 25 leaves [8]: 28.0 | % BRIX [9]: 117.9% | AVG Brix of 25 leaves [9]: 29.5 | % BRIX [10]: 117.9% | AVG Brix of 25 leaves [10]: 29.5 | % BRIX, Plant #1 (Replicate 4, Oct. 5, 2021, MDJ treated Plant #1): 119.5% | % BRIX, Plant #2 (Replicate 4, Oct. 5, 2021, MDJ treated Plant #2): 119.2% | % BRIX, Plant #3 (Replicate 4, Oct. 5, 2021, MDJ treated Plant #3): 120.8%
